# According to ChEMBL document CHEMBL2390848, “Anticancer effect of altersolanol A, a metabolite produced by the endophytic fungus Stemphylium globuliferum, mediated by its pro-apoptotic and anti-invasive potential via the inhibition of NF-κB activity” (Bioorg Med Chem, 2013):
# pEC50, pIC50: −log10 of the molar value. Active and inactive are the calls of the source. The rule behind the calls is not given here.
# Experiments:
# K562 [1] = test: Induction of apoptosis in human K562 cells after 16 to 72 hrs using annexin V-propidium iodide staining by FACS analysis; format: functional, cell-based
# K562 [2] = test: Cell cycle arrest in human K562 cells assessed as accumulation at sub-G1 phase at 4 uM after 48 hrs by flow cytometry relative to untreated control; format: functional
# A549 [3] = test: Antimigratory activity against human A549 cells treated at 25 uM after scratching measured at 6 hrs interval over 120 hrs by scratch-wound assay; format: functional, cell-based
# A549 [4] = test: Cytotoxicity against human A549 cells after 24 hrs by XTT assay; format: functional, cell-based; conditions: A549, 24 h
# K562 [5] = test: Antiproliferative activity against human K562 cells measured at 6 hrs over 120 hrs by videomicroscopy analysis; format: functional, cell-based
# K562 [6] = test: Cell cycle arrest in human K562 cells assessed as accumulation at sub-G1 phase at 4 uM after 72 hrs by flow cytometry relative to untreated control; format: functional
# K562 [7] = test: Induction of apoptosis in human K562 cells assessed as cleavage of caspase-9 after 16 to 24 hrs by Western blot analysis; format: functional, cell-based
# K562 [8] = test: Induction of apoptosis in human K562 cells assessed as reduction in XIAP expression after 16 to 72 hrs by Western blot analysis; format: functional, cell-based
# K562 [9] = test: Cell cycle arrest in human K562 cells assessed as accumulation at sub-G1 phase after 16 to 72 hrs by flow cytometry; format: functional, cell-based
# K562 [10] = test: Induction of apoptosis in human K562 cells assessed as reduction in Mcl-1 expression after 16 to 72 hrs by Western blot analysis; format: functional, cell-based
# K562 [11] = test: Cytotoxicity against human K562 cells after 48 hrs by trypan blue exclusion test; format: functional, cell-based; conditions: K562, 48 h
# K562 [12] = test: Cell cycle arrest in human K562 cells assessed as accumulation at sub-G1 phase at 0.2 to 10 uM by flow cytometry; format: functional, cell-based; conditions: TDE = time-dependent effect
# K562 [13] = test: Cytotoxicity against human K562 cells at 0.5 to 100 uM after 8 to 72 hrs by trypan blue exclusion test; format: functional, cell-based
# K562 [14] = test: Cytotoxicity against human K562 cells after 24 hrs by trypan blue exclusion test; format: functional, cell-based; conditions: K562, 24 h
# PBMC [15] = test: Effect on metabolism of human PBMCs after 24 hrs by CellTiter-Glo luminescent cell viability assay; format: functional, cell-based
# K562 [16] = test: Induction of apoptosis in human K562 cells assessed as cleavage of caspase-3 after 16 to 24 hrs by Western blot analysis; format: functional, cell-based
# PBMC [17] = test: Cytotoxicity against human PBMCs after 24 hrs by trypan blue exclusion test; format: cell-based
# K562 [18] = test: Cell cycle arrest in human K562 cells assessed as accumulation at sub-G1 phase after 16 hrs by flow cytometry relative to untreated control; format: functional
# K562 [19] = test: Cell cycle arrest in human K562 cells assessed as accumulation at sub-G1 phase after 24 hrs by flow cytometry relative to untreated control; format: functional
# K562 [20] = test: Induction of apoptosis in human K562 cells assessed as reduction in Bcl-xL expression after 16 to 72 hrs by Western blot analysis; format: functional, cell-based
# K562 [21] = test: (§1) Inhibition of TNFalpha-induced NF-kappa-B transcriptional activity in human K562 cells pretreated with compound for 2 hrs measured 6 hrs post TNFalpha challenge by luciferase reporter gene assay; format: cell-based
# [22] = as §1; format: cell-based
# A549 [23] = test: Antiproliferative activity against human A549 cells measured at 6 hrs over 120 hrs by videomicroscopy analysis; format: functional, cell-based
# K562 [24] = test: Inhibition of TNFalpha-induced NF-kappa-B transcriptional activity in human K562 cells pretreated with compound at 100 uM for 2 hrs measured 6 hrs post TNFalpha challenge by luciferase reporter gene assay; format: cell-based
# K562 [25] = test: Cytotoxicity against human K562 cells at 100 uM after 24 hrs by trypan blue exclusion test; format: functional, cell-based
compound,measurement,setting,value
COc1cc(O)c2c(c1)C(=O)C1=C(C2=O)[C@H](O)[C@@H](O)[C@@](C)(O)[C@@H]1O [ALTERSOLANOL A],Activity,K562 [1],Dose-dependent effect
same,Activity,K562 [2],65%
same,Activity,A549 [3],Active
same,pEC50,A549 [4],4.53
same,pEC50,K562 [5],< 6.00
same,Activity,K562 [6],65%
same,Activity,K562 [7],Dose-dependent effect
same,Activity,K562 [8],Dose-dependent effect
same,Activity,K562 [9],Dose-dependent effect
same,Activity,K562 [10],Dose-dependent effect
same,pEC50,K562 [11],5.60
same,Activity,K562 [12],tde
same,Activity,K562 [13],Active
same,pEC50,K562 [14],5.40
same,pEC50,PBMC [15],5.38
same,Activity,K562 [16],Dose-dependent effect
same,Activity,PBMC [17],Non-toxic
same,Activity,K562 [18],40%
same,Activity,K562 [19],40%
same,Activity,K562 [20],Dose-dependent effect
same,inhibition,K562 [21],Dose-dependent effect
same,pIC50,[22],6.10
same,pEC50,A549 [23],< 5.70
COc1cc(OC(C)=O)c2c(c1)C(=O)C1=C(C2=O)[C@H](OC(C)=O)[C@@H](OC(C)=O)[C@@](C)(O)[C@@H]1OC(C)=O,pEC50,K562 [11],5.60
same,Activity,K562 [13],Active
same,pEC50,K562 [14],5.40
same,inhibition,K562 [21],Dose-dependent effect
same,pIC50,[22],5.33
COc1cc(O)c2c(c1)[C@H](O)[C@H]1C[C@](C)(O)[C@H](O)C[C@@H]1C2=O,inhibition,K562 [24],inactive
same,Activity,K562 [25],inactive
COc1cc(O)c2c(c1)[C@H](O)[C@@H]1[C@@H](C2=O)[C@H](O)[C@@H](O)[C@@](C)(O)[C@@H]1O,inhibition,K562 [24],inactive
same,Activity,K562 [25],inactive
